{"source": "patent US20040180908A1", "about": "“Adenosine derivative in polymorph ii form” (priority 2001, published 2004)", "experiment": "stability of the polymorph at elevated temperatures", "type": "physicochemical", "conditions": "for example in excess of 70° C."}
{"smiles": "CC(C)(C)c1nnc([C@H]2O[C@@H](n3cnc4c(Nc5ccc(Cl)cc5F)ncnc43)[C@H](O)[C@@H]2O)o1", "note": "[Polymorph II, (2S,3S,4R,5R)-2-(5-tert-butyl-[1,3,4]-oxadiazol-2-yl)-5-[6-(4-chloro-2-fluorophenylamino)-9H-purin-9-yl]-tetrahydrofuran-3,4-diol]", "values": [{"measurement": "stability at elevated temperatures", "value": "particular stability at elevated temperatures"}]}
